Results from ChEMBL document CHEMBL2202978, “Synthesis and antiviral activity of novel HCV NS3 protease inhibitors with P4 capping groups” (Bioorg Med Chem Lett, 2012).

Legend:
Hepatitis C virus [1] = experiment: Antiviral activity against HCV subtype 1b expressing NS3/4A R115K mutant protease infected in ET cells after 72 hrs; type: functional, organism-based, Hepacivirus hominis; settings: genotype 1b
Hepatitis C virus [2] = experiment: Antiviral activity against HCV subtype 1b expressing NS3/4A D168V mutant protease infected in ET cells after 72 hrs; type: functional, organism-based, Hepacivirus hominis; settings: genotype 1b
Hepatitis C virus [3] = experiment: Antiviral activity against HCV subtype 1b expressing NS3/4A D168A mutant protease infected in ET cells after 72 hrs; type: functional, organism-based, Hepacivirus hominis; settings: genotype 1b
Hepatitis C virus [4] = experiment: Antiviral activity against HCV subtype 1b expressing NS3/4A A156V mutant protease infected in ET cells after 72 hrs; type: functional, organism-based, Hepacivirus hominis; settings: genotype 1b
Hepatitis C virus [5] = experiment: Antiviral activity against HCV subtype 1b expressing NS3/4A A156T mutant protease infected in ET cells after 72 hrs; type: functional, organism-based, Hepacivirus hominis; settings: genotype 1b
Hepatitis C virus [6] = experiment: Antiviral activity against HCV subtype 1b expressing NS3/4A A156S mutant protease infected in ET cells after 72 hrs; type: functional, organism-based, Hepacivirus hominis; settings: genotype 1b
Hepatitis C virus [7] = experiment: Antiviral activity against HCV subtype 1b expressing wild type NS3/4A protease infected in ET cells after 72 hrs; type: functional, organism-based, Hepacivirus hominis; settings: genotype 1b
Hepatitis C virus [8] = experiment: Antiviral activity against HCV subtype 1b infected in human hepatoma cells; type: functional, organism-based, Hepacivirus hominis; settings: genotype 1b
Hepatitis C virus [9] = experiment: Antiviral activity against HCV subtype 1a infected in human hepatoma cells; type: functional, organism-based, Hepacivirus hominis
[10] = Inhibition of HCV subtype 1a NS3/4A protease (Ac-DE-Dap(QXL520)-EE-Abu-psi-[COO]-ASC(5-FAMsp)-NH2 as substrate by FRET analysis; parameters: species or system Hepatitis C virus subtype 1a
[11] = Terminal half life in Sprague-Dawley rat at 6.15 mg/kg, po and 1.23 mg/kg, iv; type: ADME, organism-based; settings: in vivo, read-out: beta t1/2 (converted)
[12] = Oral bioavailability in Sprague-Dawley rat at 6.15 mg/kg; type: ADME, organism-based; settings: in vivo
[13] = Drug absorption in Sprague-Dawley rat portal vein at 6.15 mg/kg, po; type: ADME, organism-based; parameters: dose 6.15 mg/kg, route oral; settings: read-out: Drug absorption
[14] = AUC (0 to infinity) in Sprague-Dawley rat at 6.15 mg/kg, po; type: ADME, organism-based; parameters: time infinity, dose 6.15 mg/kg, route oral; settings: plasma
[15] = AUC in Sprague-Dawley rat at 1.23 mg/kg, iv; type: ADME, organism-based; parameters: dose 1.23 mg/kg, route intravenous; settings: plasma
[16] = Clearance in Sprague-Dawley rat at 1.23 mg/kg, iv; type: ADME, organism-based; parameters: dose 1.23 mg/kg, route intravenous; settings: in vivo
[17] = Terminal half life in Sprague-Dawley rat at 5 mg/kg, po and 1 mg/kg, iv; type: ADME, organism-based; settings: in vivo, read-out: beta t1/2 (converted)
[18] = Oral bioavailability in Sprague-Dawley rat at 5 mg/kg; type: ADME, organism-based; settings: in vivo
[19] = Drug absorption in Sprague-Dawley rat portal vein at 5 mg/kg, po; type: ADME, organism-based; parameters: dose 5 mg/kg, route oral; settings: read-out: Drug absorption
[20] = AUC (0 to infinity) in Sprague-Dawley rat at 5 mg/kg, po; type: ADME, organism-based; parameters: time infinity, dose 5 mg/kg, route oral; settings: plasma
[21] = AUC in Sprague-Dawley rat at 1 mg/kg, iv; type: ADME, organism-based; parameters: dose 1 mg/kg, route intravenous; settings: plasma
[22] = Clearance in Sprague-Dawley rat at 1 mg/kg, iv; type: ADME, organism-based; parameters: dose 1 mg/kg, route intravenous; settings: in vivo

Structure (SMILES)	EC50 (Hepatitis C virus [1]) [nM]	EC50 (Hepatitis C virus [2]) [nM]	EC50 (Hepatitis C virus [3]) [nM]	EC50 (Hepatitis C virus [4]) [nM]	EC50 (Hepatitis C virus [5]) [nM]	EC50 (Hepatitis C virus [6]) [nM]	EC50 (Hepatitis C virus [7]) [nM]	EC50 (Hepatitis C virus [8]) [nM]	EC50 (Hepatitis C virus [9]) [nM]	IC50 [10] [nM]	further results
COc1ccc2c(O[C@@H]3C[C@H]4C(=O)N[C@]5(C(=O)NS(=O)(=O)C6CC6)C[C@H]5/C=C\CCCCC[C@H](NC(=O)C(=O)N5CCCCC5)C(=O)N4C3)cc(-c3nc(C4CC4)cs3)nc2c1C	14	151	49	6.2	5.5	0.1	0.02	0.4	0.5	1	–
COc1ccc2c(O[C@@H]3C[C@H]4C(=O)N[C@]5(C(=O)NS(=O)(=O)C6CC6)C[C@H]5/C=C\CCCCC[C@H](NC(=O)OC(C)(C)C)C(=O)N4C3)cc(-c3nc(C4CC4)cs3)nc2c1C	6	–	–	1.5	1.9	0.08	0.02	0.4	0.4	6.3	half-life [11]: 97.8 min; bioavailability [12]: 10%; Fa [13]: 14.5%; AUC(0-inf) [14]: 201 ng·h/mL; AUC [15]: 381 ng·h/mL; clearance [16]: 45.6 mL/min/kg
COc1ccc2c(O[C@@H]3C[C@H]4C(=O)N[C@]5(C(=O)NS(=O)(=O)C6CC6)C[C@H]5/C=C\CCCCC[C@H](N)C(=O)N4C3)cc(-c3nc(C4CC4)cs3)nc2c1C	155	1660	229	41	20	1.2	1	1	0.7	1.3	–
COc1ccc2c(O[C@@H]3C[C@H]4C(=O)N[C@]5(C(=O)NS(=O)(=O)C6CC6)C[C@H]5/C=C\CCCCC[C@H](NC(=O)N(C)C)C(=O)N4C3)cc(-c3nc(C4CC4)cs3)nc2c1C	0.5	27	14	2	0.5	0.05	0.03	0.2	0.3	0.5	–
CCN(CC)C(=O)N[C@H]1CCCCC/C=C\[C@@H]2C[C@@]2(C(=O)NS(=O)(=O)C2CC2)NC(=O)[C@@H]2C[C@@H](Oc3cc(-c4nc(C5CC5)cs4)nc4c(C)c(OC)ccc34)CN2C1=O	4	51	19	5.5	1	0.1	0.03	0.2	0.3	0.6	half-life [17]: 84 min; bioavailability [18]: 7.4%; Fa [19]: 19%; AUC(0-inf) [20]: 48.7 ng·h/mL; AUC [21]: 127 ng·h/mL; clearance [22]: 152 mL/min/kg
COc1ccc2c(O[C@@H]3C[C@H]4C(=O)N[C@]5(C(=O)NS(=O)(=O)C6CC6)C[C@H]5/C=C\CCCCC[C@H](NC(=O)C5(OC)CC5)C(=O)N4C3)cc(-c3nc(C4CC4)cs3)nc2c1C	–	–	–	–	–	–	–	0.2	0.2	1.6	–
COc1ccc2c(O[C@@H]3C[C@H]4C(=O)N[C@]5(C(=O)NS(=O)(=O)C6CC6)C[C@H]5/C=C\CCCCC[C@H](NC(=O)C5(OC)CCC5)C(=O)N4C3)cc(-c3nc(C4CC4)cs3)nc2c1C	44	263	91	85	20	0.3	0.04	0.1	0.2	2	half-life [17]: 59.4 min; bioavailability [18]: 8.2%; Fa [19]: 16.5%; AUC(0-inf) [20]: 49.1 ng·h/mL; AUC [21]: 117 ng·h/mL; clearance [22]: 144 mL/min/kg
CC(C)(C)OC(=O)N[C@H]1CCCCC/C=C\[C@@H]2C[C@@]2(C(=O)NS(=O)(=O)C2CC2)NC(=O)[C@@H]2C[C@@H](OC(=O)N3Cc4cccc(F)c4C3)CN2C1=O [DANOPREVIR]	82	26	39	8	10	2	0.2	–	–	0.7	–
COc1ccc2c(O[C@@H]3C[C@H]4C(=O)N[C@]5(C(=O)NS(=O)(=O)C6CC6)C[C@H]5/C=C\CCCCN(C)C(=O)[C@@H]4C3)cc(-c3nc(C(C)C)cs3)nc2c1C [SIMEPREVIR]	56	140	149	344	86	0.3	1	1	2	10	–
CCC[C@H](NC(=O)[C@@H]1[C@H]2CCC[C@H]2CN1C(=O)[C@@H](NC(=O)[C@@H](NC(=O)c1cnccn1)C1CCCCC1)C(C)(C)C)C(=O)C(=O)NC1CC1 [TELAPREVIR]	1780	207	638	1960	1140	883	34	–	–	500	–
